Source: US20110124607A1, “COMPOSITION FOR REGULATION CELLULAR SENESCENCE COMPRISING LYSOPHOSPHATIDIC ACID AND INHIBITOR OF ADENYLYL CYCLASE AS ACTIVE INGREDIENTS” (priority 2008, published 2011)

Tests used:
[1] = tested on: young cells (human fibroblasts); assay: Cell proliferation by counting live cells (trypan blue), young cells; type: cell-based; conditions: serum-starved 2 days, counted day 1, 2, 4, 30 μM LPA, 300 μM ACI, 10 mM AMPKI, 10 mM AICAR
Description: (§1) Human fibroblasts were prepared by primary culture of foreskin of a newborn baby (Boyce and Ham, 1983). The primary culture was performed in DMEM supplemented with 10% FBS and 1% antibiotics. The protein contents of young cells from the early stage of sub-culture, with a population doubling (PD) of less than 25, were compared to those of at least PD 65-70 senescent cells. […] In senescent cells, the activity of beta-galactosidase was increased and cell proliferation was reduced (Yeo et al., 2000).
(§2) Prior to LPA and ACI treatment, cells were grown for 1-2 days to 60-70% sub-confluence in DMEM-containing culture medium, and then serum-starved to quiescence (that is Go/G1 arrest) by incubation in a serum-free medium containing 0.1% bovine serum albumin (BSA) for 2 days. Young and senescent cells were treated with LPA, ACI, LPA+ACI, AMPKI and AICAR, respectively. Live cells were measured after staining the cells with trypan blue on day 1, day 2 and day 4 to confirm cell proliferation.
(§3) Cell proliferation and cAMP level were increased by LPA in senescent cells (Yeo et al., 2002). The AC inhibitor (ACI) was added to reduce cAMP which had been increased by LPA. And then, cell proliferation was investigated. Cells were cultured in serum-free medium for 2 days to arrest them in G0/G1 phase. Then, the cells were treated with LPA, ACI or LPA+ACI. Total cell number was measured on day 1, day 2 and day 4, or the cells entered into S phase were counted to evaluate cell proliferation. When young cells were treated with 300 μM of ACI, cell proliferation was reduced, compared with control (FIG. 1A). In the meantime, when senescent cells were treated with 300 μM of ACI, cell proliferation was increased, compared with control (FIG. 1B).

[2] = tested on: senescent cells (human fibroblasts); assay: Cell proliferation by counting live cells (trypan blue), senescent cells; type: cell-based; conditions: serum-starved 2 days, counted day 1, 2, 4, 30 μM LPA, 300 μM ACI, 10 mM AMPKI, 10 mM AICAR
Description: as §1, §2, §3

[3] = tested on: fibroblasts (young and senescent cells); assay: Soft agar assay (colony formation); type: cell-based, human; conditions: 30 μM LPA, 300 μM ACI, three weeks
Description: Young and senescent cells were distributed in DMEM containing 10% bovine serum and 0.3% top agar, which were loaded on 0.6% basic agar layer in 60 mm culture dish. The cells treated with 30 μM LPA (L), 300 μM ACI (A), or both LPA and ACI for three weeks were fixed with 70% ethanol, and so was the control treated with nothing. After staining the cells with trypan blue, colonies were counted under microscope. HeLa and HepG2 cancer cell lines were distributed on soft agar dish, as positive controls, followed by treatment with LPA, ACI, or LPA+ACI. Colony formation was also analysed. The number of colonies formed in soft agar dish was plotted as mean+/− standard deviation and each measurement was repeated at least three times.
LPA and ACI were treated to fibroblast and cancer cell groups, followed by soft agar assay. […] From the above results, it was confirmed that LPA and ACI induce normal cell proliferation but not cause any transformation of cells to turn them into tumor.

p21waf1/cip1 = assay: Immunofluorescent staining of p21; type: cell-based, human; conditions: 30 μM LPA, 300 μM ACI, day 2 and day 4
Description: (§4) FIG. 3 is a set of photographs illustrating the effect of LPA and ACI on the expressions of p21 and cyclin-D1 in young and senescent cells. Particularly, a-f, g-l and m-r are photographs illustrating that sub-cultured young cells (PD 20: Y) and senescent cells (PD 65: S) were serum-starved for 48 hours respectively, followed by treatment of LPA (a-f) and ACI (g-l) singly or together (m-r), and after culturing for 1, 2, and 4 days, the cells were fixed in 4% hydrogen peroxide, and stained with p21waf1/cip1 (A) and cyclin D1 (B) antibodies, followed by confirming immunofluorescence. At this time, nucleus was stained with DAPI.
(§5) Coverslips were placed on 24 well plate on which required amounts of young and senescent cells were distributed. Media were eliminated and the treated cells were washed with PBS twice. Then, the cells were fixed with 4% hydrogen peroxide. Non-specific protein staining was blocked using PBS containing 2% BSA (blocking serum). The cells were stained with primary antibody such as anti-AMPKα, anti-p-Thr172-AMPKα, anti-p-Ser485/491-AMPKα, anti-p53, anti-p-Ser15-p53, anti-p21waf1/cip1, and anti-cyclin D1. To stain nucleus, DAPI (1:1000) was also added, followed by observation under Zeiss LSM 510 laser scanning microscope.
Cells were treated with 30 μM of LPA, 300 μM of ACI or LPA+ACI for 4 days, followed by immunofluorescence to investigate p21 and cyclin D1 expressions (FIG. 3A). As a result, when young cells were treated with ACI alone or LPA+ACI, p21 expression was increased on day 2 and day 4 (FIG. 3A).

cyclin D1 = assay: Immunofluorescent staining of cyclin D1; type: cell-based, human; conditions: 30 μM LPA
Description: as §4
as §5, with “microscope. […]” for “microscope.”

Compound | cell proliferation (cell number) compared with control [1] | cell proliferation (cell number) compared with control [2] | colony formation in soft agar (transformation) [3] | p21 expression (immunofluorescence) (p21waf1/cip1; young cells) | cyclin D1 expression (immunofluorescence) (cyclin D1; young cells) | p21 expression (immunofluorescence) (p21waf1/cip1; senescent cells) | cyclin D1 expression (immunofluorescence) (cyclin D1; senescent cells, 300 μM ACI)
lysophosphatidic acid [LPA] | increased | increase | did not form any colony | decrease | decrease |  | 
Nc1ncnc2c1ncn2C1CCCO1 (centres unmarked) [ACI, 9-(tetrahydro-2′-furyl)adenine] | reduced | increased | did not form any colony | increased |  | reduced | reduced
